According to patent US20210085796A1, “ANTICANCER DRUGS AND METHODS OF MAKING AND USING SAME” (YALE UNIVERSITY, priority 2017, published 2021):
Entries after “also recorded” stand apart in the source; their conditions may differ.

Columns and labels:
HeLa cells = test: pH-dependent cell uptake by flow cytometry; type: cell-based; conditions: 5 μM, 1 hour, pH 7.4 vs pH 6.5
Source text: FIGS. 5A-5B depict representative flow cytometry traces of pH-dependent cell treatments. […] Normalized cell counts (Y-axes) are plotted vs. doxorubicin fluorescence intensity per cell (X-axes).

[1] = Serum stability of prodrug (LCMS, 490 nm absorbance); type: in vitro ADME; conditions: 50 μM in PBS pH 7.4 with 20% mouse serum, 37° C., 6 hours of incubation
Protocol: FIG. 4A depicts liquid chromatography data showing the stability of YU241528 in serum.
The prodrug strategies of this invention are thought to impart their benefits during the distribution and cell uptake steps of anticancer therapy. In certain embodiments, a prodrug is stable in the blood for a period sufficient to allow for cell uptake and systemic clearance. To test this, 50 μM YU241528 in a solution of PBS, pH 7.4, containing 20% mouse serum was incubated at 37° C. At regular intervals, aliquots were taken and mixed with 2 volumes of ethanol to precipitate serum proteins, then centrifuged. Supernatants were analyzed by LCMS. […] The predominant peak was identified as YU241528 by mass spectrometry.

[2] = Reductive activation / doxorubicin release in 5 mM GSH (LCMS); type: in vitro ADME; conditions: 50 μM, PBS pH 7.4, 5 mM GSH, 37° C.
Protocol: In certain embodiments, the prodrug releases the active form of the drug once inside a cancer cell. Once inside the cell, drug release can be triggered by reduction of the disulfide bond in the linker. To evaluate the reductive activation of drug release, 50 μM YU241528 in a solution of PBS, pH 7.4, containing 5 mM GSH (a typical intracellular concentration of the predominant biological reducing agent) was incubated at 37° C. Aliquots were taken at regular intervals and analyzed by LCMS.

[3] = Blood levels after tail vein injection; type: in vivo, adult female balb/c mice
Protocol: Given that the drug's distribution and clearance can be expected to be substantially complete by about 6 hours after administration, in certain embodiments the peak intracellular dose is achieved long before this process might interfere to a significant degree, even assuming the altered metabolite is indeed compromised in its activity. […] In certain embodiments, the serum stability of YU241528 allows for effective therapy. […] In certain embodiments, the prodrug undergoes a different elimination path, as hepatobiliary elimination of weakly-ionic organic substances is sensitive to charge, size, and lipophilicity.

[4] = tested on: MDA-MB-231 breast cancer cells; test: pH-dependent cell growth inhibition (CellTiter-Glo); type: cell-based, Human; conditions: 6 hours treatment at pH 7.4 or pH 6.2, then 72 hours growth
Protocol: Cells treated for 6 hours at pH 7.4 (normal physiological pH, X traces) or pH 6.2 (acidic solid tumor pH, Y traces) were subsequently allowed to grow in normal growth medium for 72 hours, then cell viability was evaluated using the CellTiter-Glo assay kit (Promega). Normalized percent cell growth inhibition is plotted on the left side of each panel and IC50 values reported at each pH from non-linear regression analysis.
(§1) In order to evaluate pH-dependent activity, treatments are performed at atypical cell culture conditions. […] Several cell lines have been evaluated using this method and for each, cell seeding density and treatment duration is independently experimentally determined. Each experiment is normalized to sham and complete activity controls for each pH condition.
Human MDA-MB-231 breast cancer cells seeded at low density on tissue culture treated 384-well plates, allowed to adhere and grow in serum-supplemented growth medium for 24 hours, then treated under pH-controlled conditions for 6 hours, and finally washed and grown in fresh growth media for 72 hours were assessed for cell survival using the CellTiter-Glo assay system (Promega) (FIG. 6).

[5] = cited from earlier work
[6] = tested on: PEO1 ovarian cancer cells; test: pH-dependent cell growth inhibition, transient treatment; type: cell-based; conditions: for pH dependence of cell growth inhibition: pH 7.4 vs pH 6.2
Protocol: FIG. 9 depicts pH-dependent cell growth inhibition of PEO1 ovarian cancer cells in culture, treated transiently with various prodrugs of the invention, as described above.
FIG. 10 depicts pH-dependent cell growth inhibition of PEO1 ovarian cancer cells in culture, treated transiently with an anticancer kinase inhibitor drug, Osimertinib, or a compound of the invention, based on an active core of that drug, YU253673.
as §1
Similar results have been obtained from pH-dependent cell growth inhibition assays with other classes of Drug using the prodrug approach.

EMT-6 flank tumors = test: In vivo efficacy and toxicity in EMT-6 flank tumor model; design: species or system Balb/c mice; conditions: IV once daily for 5 days
Source text: FIG. 7 depicts representative in vivo study on the efficacy and toxicity of compounds of the invention. […] Mean tumor volume and mean body weight graphs are shown for groups of 10 tumor-bearing mice.
FIG. 8 depicts the dose dependence of YU241531 (right panel) and YU244206 (left panel) treatments in the EMT-6 tumor model in Balb/c mice.

| Compound | pH preference of cell uptake (HeLa cells) | pH dependence of cell growth inhibition [4] | pH dependence of cell growth inhibition [6] | body weight loss compared to sham treated controls (EMT-6 flank tumors) | other results |
| --- | --- | --- | --- | --- | --- |
| 8-((2-((((2S,3S,4S,6R)-3-hydroxy-2-methyl-6-(((1S,3S)-3,5,12-trihydroxy-3-(2-hydroxyacetyl)-10-methoxy-6,11-dioxo-1,2,3,4,6,11-hexahydrotetracen-1-yl)oxy)tetrahydro-2H-pyran-4-yl)carbamoyl)oxy)ethyl)disulfaneyl)-2,2-dimethyloctanoic acid [YU241528] | preferentially taken up by cells at cancerous pH 6.5 versus cells at normal pH 7.4 |  |  |  | release of free doxorubicin / stability in serum [1]: no active doxorubicin is released; also recorded: no free doxorubicin was detected; also recorded: stable in serum; t1/2 of reduction of the disulfide [2]: ~2.7 min; non-compartmental half-life in blood [3]: about 1 hour; level in the blood at 6 hours post injection ([3]; 6 hours): remains at detectable levels; level in the blood at 24 hours post injection ([3]; 24 hours): undetectable |
| COc1cccc2c1C(=O)c1c(O)c3c(c(O)c1C2=O)C[C@@](O)(C(=O)CO)C[C@@H]3O[C@H]1C[C@H](N)[C@H](O)[C@H](C)O1 [Doxorubicin, reference compound] | greater uptake into cells at normal physiologic pH 7.4 than into cells at cancerous pH 6.5 | greater growth inhibition at basic healthy pH |  |  | basic pKA of amine group [5]: ~8 |
| C=CC(=O)Nc1cc(Nc2nccc(-c3cn(C)c4ccccc34)n2)c(OC)cc1N(C)CCN(C)C [Osimertinib, reference compound] |  |  | slightly lower IC50 value at healthy pH 7.4 |  |  |
| COc1cccc2c1C(=O)c1c(O)c3c(c(O)c1C2=O)C[C@@](O)(C(=O)CO)C[C@@H]3O[C@H]1C[C@H](NC(=O)OCCSSCCCCCCCC(=O)O)[C@H](O)[C@H](C)O1 [YU241531, 8-((2-((((2S,3S,4S,6R)-3-hydroxy-2-methyl-6-(((1S,3S)-3,5,12-trihydroxy-3-(2-hydroxyacetyl)-10-methoxy-6,11-dioxo-1,2,3,4,6,11-hexahydrotetracen-1-yl)oxy)tetrahydro-2H-pyran-4-yl)carbamoyl)oxy)ethyl)disulfaneyl)octanoic acid] |  | greater growth inhibition at acidic tumor pH |  | no detectable weight loss |  |
| COc1cccc2c1C(=O)c1c(O)c3c(c(O)c1C2=O)C[C@@](O)(C(=O)CO)C[C@@H]3O[C@H]1C[C@H](NC(=O)OCCSSCCCc2c(F)c(F)c(O)c(F)c2F)[C@H](O)[C@H](C)O1 [YU244206, 2-((3-(2,3,5,6-tetrafluoro-4-hydroxyphenyl)propyl)disulfaneyl)ethyl ((2S,3S,4S,6R)-3-hydroxy-2-methyl-6-(((1S,3S)-3,5,12-trihydroxy-3-(2-hydroxyacetyl)-10-methoxy-6,11-dioxo-1,2,3,4,6,11-hexahydrotetracen-1-yl)oxy)tetrahydro-2H-pyran-4-yl)carbamate] |  | greater growth inhibition at acidic tumor pH |  | no detectable weight loss |  |
| C=CC(=O)Nc1cc(Nc2nccc(-c3cn(C)c4ccccc34)n2)c(OC)cc1N(C)CCCc1c(F)c(F)c(O)c(F)c1F [YU253673, N-(4-methoxy-2-(methyl(3-(2,3,5,6-tetrafluoro-4-hydroxyphenyl)propyl)amino)-5-((4-(1-methyl-1H-indol-3-yl)pyrimidin-2-yl)amino)phenyl)acrylamide] |  |  | far greater activity at tumor pH 6.2 |  | cell growth inhibition at pH 6.2 ([6]; pH 6.2): potent cell growth inhibition; fold greater activity in tumor pH conditions compared with healthy pH conditions ([6]; pH 6.2 vs pH 7.4): more than 30 fold; cell growth inhibition at pH 7.4 ([6]; pH 7.4): no observed activity |
